Data: article PMC13051451, “A Charge-Reversal Point Mutation Completely Depletes Flavin Chromophore from European Robin Cryptochrome 4a Protein” (The Journal of Physical Chemistry Letters, 2026)

Tests used:
[1] = target: T1, European robin Cryptochrome 4a (ErCry4a) (Erithacus rubecula, UniProt A0A2I4SZI9); experiment: native electrospray mass spectrometry; UV-vis absorption; type: binding; conditions: co-purified FAD, noncovalent; 20 uM protein, 150 mM ammonium acetate, pH 8
T1 construct: anion exchange purified; monomer with minor dimer

[2] = target: T2, European robin Cryptochrome 4a (ErCry4a) (Erithacus rubecula, UniProt A0A2I4SZI9, R356E); experiment: as above; type: binding; conditions: co-purified FAD, noncovalent; 20 uM protein, 150 mM ammonium acetate, pH 8; no bound FAD detected (non-binder)
T2 construct: anion exchange purified; monomer with minor dimer
T2 sequence (A0A2I4SZI9 entry or part of it R356E): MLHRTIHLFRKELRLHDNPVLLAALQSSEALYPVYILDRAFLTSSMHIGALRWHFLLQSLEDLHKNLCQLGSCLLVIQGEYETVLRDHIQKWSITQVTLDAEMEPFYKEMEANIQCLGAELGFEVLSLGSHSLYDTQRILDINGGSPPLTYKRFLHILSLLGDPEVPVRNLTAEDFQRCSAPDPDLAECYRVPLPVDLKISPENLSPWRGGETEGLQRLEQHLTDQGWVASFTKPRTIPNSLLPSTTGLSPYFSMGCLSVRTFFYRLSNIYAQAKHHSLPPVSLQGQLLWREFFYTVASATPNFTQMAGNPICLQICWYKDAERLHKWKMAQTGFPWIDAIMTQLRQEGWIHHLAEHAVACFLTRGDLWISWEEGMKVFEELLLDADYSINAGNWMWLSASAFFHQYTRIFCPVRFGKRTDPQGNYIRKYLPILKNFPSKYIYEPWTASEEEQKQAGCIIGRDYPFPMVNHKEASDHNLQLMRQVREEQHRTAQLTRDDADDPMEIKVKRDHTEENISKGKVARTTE

T1 sequence (A0A2I4SZI9 entry or part of it): as the sequence (A0A2I4SZI9 entry or part of it R356E) above, with E356R counted along it

% of protein with FAD bound [1]: 94%
Compound: Cc1cc2nc3c(=O)[nH]c(=O)nc-3n(C[C@H](O)[C@H](O)[C@H](O)COP(=O)(O)OP(=O)(O)OC[C@H]3O[C@@H](n4cnc5c(N)ncnc54)[C@H](O)[C@@H]3O)c2cc1C [flavin adenine dinucleotide]
native electrospray mass spectrometry; UV-vis absorption [2]: The R356E mutant is detected exclusively without FAD
